Experimental data as given in patent US20210221848A1, “POLYMYXIN DERIVATIVES AND THEIR USE IN COMBINATION THERAPY TOGETHER WITH DIFFERENT ANTIBIOTICS” (priority 2014, published 2021).
Values after ≈ are worked out from the molar mass of the structure shown. Like-named read-outs stand apart in the source and are kept apart here. Bridge positions count the residues as written; N and C are the ends. Square brackets hold non-standard residues; d marks the D form. Peptide text beside a SMILES is read from it. * marks the point of attachment. aThr = C[C@H](O)[C@H](N)C(=O)O; X2 = CC(C)CN1CCNC[C@H]1C(=O)*; Dab = NCC[C@H](N)C(=O)O

Key:
[1] = system: P. aeruginosa strains with elevated MICs to Polymyxin B; assay: MIC against strains with elevated MICs to Polymyxin B; assay type: cell-based, Pseudomonas aeruginosa; settings: Table 6D; for MIC P. aeruginosa 065: strain 065, elevated MIC to Polymyxin B; for MIC P. aeruginosa 066: strain 066, elevated MIC to Polymyxin B; for MIC P. aeruginosa 067: strain 067, elevated MIC to Polymyxin B
Summary of the method: (§1)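 Polymyxin B-resistant isolates were inoculated from 0.5 McFarland suspensions of 18-24 hour Mueller-Hinton agar colonies. Testing was done twice per compound, and results disagreeing by over 2-fold were discarded as non-valid. For compounds assayed several times, the modal MIC is given.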

A. baumannii [2] = settings: absence of a second agent, Table 6B
[3] = system: A. baumanii strains with elevated MICs to Polymyxin B; assay: MIC against strains with elevated MICs to Polymyxin B; assay type: cell-based, Acinetobacter baumannii; settings: Table 6D; for MIC A. baumannii 053: strain 053, elevated MIC to Polymyxin B; for MIC A. baumannii 056: strain 056, elevated MIC to Polymyxin B; for MIC A. baumannii 068: strain 068, elevated MIC to Polymyxin B; for MIC A. baumannii 070: strain 070, elevated MIC to Polymyxin B
Summary of the method: as §1

[4] = system: K. pneumoniae strains with elevated MICs to Polymyxin B; assay: as above; assay type: cell-based, Klebsiella pneumoniae; settings: Table 6D; for MIC K. pneumoniae 062: strain 062, elevated MIC to Polymyxin B; for MIC K. pneumoniae 063: strain 063, elevated MIC to Polymyxin B; for MIC K. pneumoniae 064: strain 064, elevated MIC to Polymyxin B; for MIC K. pneumoniae 655: strain 655, elevated MIC to Polymyxin B
Summary of the method: as §1

[5] = system: Pseudomonas aeruginosa ATCC 27853; assay type: in vivo
Description: Groups of 7 male neutropenic specific-pathogen-free CD-1 mice weighing 21.5-27.5 g were used. On Day 0, animals were infected with 0.04 mL inoculum by intranasal instillation into mouse nostrils and were kept in an upright position on a string rack for ˜10 min post-infection. […] At 2 h, the CFU count was determined from 3 mice and the remaining mice (7 per test compound groups) were treated with a subcutaneous injection of the drug at +2, 6 and 10 hr post-infection. Test compounds and the comparator polymyxin B were administered at four concentrations (2.6, 8.6, 17.2 and 25.8 mg/kg free base). The vehicle control group (7 mice) was treated with 0.9% saline for injection at 2, 6 and 10 h post-infection.
Sixteen hours after infection, the mice were euthanized humanely. The lungs of each animal were harvested, homogenized and quantitatively cultured onto CLED agar for CFU determination. Decrease of the total CFU compared to control counts at 16 h post-infection was determined for each dose group.
The in vivo efficacy of 4 compounds of the invention (D25, D36, D42 and D50) was evaluated in a mouse lung infection model of P. aeruginosa ATCC 27853. The model was setup as described above with the exception that groups of up to 8 mice were inoculated through intranasal instillation of ˜2.5×10^6 CFUs of P. aeruginosa isolate ATCC 27853 (1.0×10^5 CFU/lung). Test compounds were administered at two concentrations (equivalent to 4.3 and 17.2 mg/kg free base). Three dose levels of polymyxin B sulfate were used as comparator (equivalent to 4.3, 8.6 and 17.2 mg/kg free base).

E. coli [6] = settings: absence of a second agent, Table 6B
[7] = system: E. coli strains with elevated MICs to Polymyxin B; assay: MIC against strains with elevated MICs to Polymyxin B; assay type: cell-based, Escherichia coli; settings: Table 6D; for MIC E. coli 058: strain 058, elevated MIC to Polymyxin B; for MIC E. coli 059: strain 059, elevated MIC to Polymyxin B; for MIC E. coli 060: strain 060, elevated MIC to Polymyxin B; for MIC E. coli 061: strain 061, elevated MIC to Polymyxin B
Summary of the method: as §1

K. pneumoniae [8] = settings: for MIC, K. pneumoniae ATCC 4352 / MIC, K. pneumoniae ATCC BAA-2146: absence of a second agent, Table 6B
P. aeruginosa [9] = settings: absence of a second agent, Table 6B
K. pneumoniae [10] = assay: MIC in 1:1 (wt:wt) combination with Rifampicin; assay type: cell-based, Klebsiella pneumoniae; settings: 1:1 (wt:wt) with Rifampicin, total drug concentration
Description: (§2) The inoculum was prepared by making a direct suspension of isolated colonies (selected from an 18-24 hour Mueller-Hinton agar plate) adjusted to the 0.5 McFarland standard. […] The assays were performed in duplicate. […] In cases where the duplicate values varied by less than 2-fold, the lower of the two values is reported. If a variation of greater than 2-fold was observed, the assay was considered non-valid. Several of the compounds were subjected to multiple tests, and where this is the case, the MIC reflects the modal value obtained.
(§3) MIC values (microgram/mL) refer to the total drug concentration (i.e. test agent plus Rifampicin).

[11] = system: Acinetobacter baumannii NCTC 13301; settings: mouse thigh, 16 h model
E. coli [12] = assay: MIC in 1:1 (wt:wt) combination with Rifampicin; assay type: cell-based, Escherichia coli; settings: 1:1 (wt:wt) with Rifampicin, total drug concentration
Description: as §2, §3

A. baumannii [13] = assay: MIC in 1:1 (wt:wt) combination with Rifampicin; assay type: cell-based, Acinetobacter baumannii; settings: A. baumannii 053; 1:1 (wt:wt) with Rifampicin; total drug concentration
Description: as §2, §3

P. aeruginosa [14] = assay: MIC in 1:1 (wt:wt) combination with Rifampicin; assay type: cell-based, Pseudomonas aeruginosa; settings: 1:1 (wt:wt) with Rifampicin, total drug concentration
Description: as §2, §3

HK-2 cell line = assay: In vitro renal cell toxicity assay (resazurin reduction)
Description: MICs were determined as described herein. HK-2 cell IC50 values were determined as described herein. Values are reported relative to Polymyxin B.

[15] = mouse lungs, P. aeruginosa ATCC 27853, SC at 2, 6 and 10 h post-infection, 16 h infection model, 17.2 mg/kg/dose free base

| Molecule | MIC P. aeruginosa 065 [1] | MIC P. aeruginosa 066 [1] | MIC P. aeruginosa 067 [1] | MIC, A. baumannii ATCC BAA-747 (A. baumannii [2]) | MIC, A. baumannii NCTC 13424 (A. baumannii [2]) | MIC A. baumannii 053 [3] | MIC A. baumannii 056 [3] | MIC A. baumannii 068 [3] | MIC A. baumannii 070 [3] | MIC K. pneumoniae 062 [4] | MIC K. pneumoniae 063 [4] | MIC K. pneumoniae 064 [4] | MIC K. pneumoniae 655 [4] | Mean log10 CFU reduction vs. control [5, 15] | MIC, E. coli ATCC 25922 (E. coli [6]) | MIC, E. coli NCTC 13441 (E. coli [6]) | MIC E. coli 058 [7] | MIC E. coli 059 [7] | MIC E. coli 060 [7] | MIC E. coli 061 [7] | other results |
| --- | --- | --- | --- | --- | --- | --- | --- | --- | --- | --- | --- | --- | --- | --- | --- | --- | --- | --- | --- | --- | --- |
| 3(S)-3-aminomethyl-5- methyl hexanoyl L- Thr-L-Dap-polymyxin B heptapeptide [Example D42] | 4 micrograms/mL | 32 micrograms/mL | >256 micrograms/mL | 0.25 micrograms/mL | 0.5 micrograms/mL | >256 micrograms/mL | 256 micrograms/mL | 16 micrograms/mL | 128 micrograms/mL | >256 micrograms/mL | 64 micrograms/mL | 16 micrograms/mL | 64 micrograms/mL | 5.34 log10 CFU | 0.25 micrograms/mL | 0.25 micrograms/mL | 8 micrograms/mL | 16 micrograms/mL | 16 micrograms/mL | 32 micrograms/mL | MIC, K. pneumoniae ATCC 4352 (K. pneumoniae [8]): 0.125 micrograms/mL; MIC, K. pneumoniae ATCC BAA-2146 (K. pneumoniae [8]): 0.5 micrograms/mL; MIC, P. aeruginosa ATCC 27853 (P. aeruginosa [9]): 0.25 micrograms/mL; MIC, P. aeruginosa CCUG 59347 (P. aeruginosa [9]): 0.5 micrograms/mL |
| (trans-5-(2- methylpropyl) piperidine)-3-carbonyl polymyxin B nonapeptide [Example D50] | 6 micrograms/mL | 4 micrograms/mL | >256 micrograms/mL | 0.25 micrograms/mL | 0.25 micrograms/mL | 128 micrograms/mL | 32 micrograms/mL | 8 micrograms/mL | 16 micrograms/mL | 64 micrograms/mL | 16 micrograms/mL | 4 micrograms/mL | 16 micrograms/mL | 5.29 log10 CFU | 0.06 micrograms/mL | 0.06 micrograms/mL | 4 micrograms/mL | 8 micrograms/mL | 4 micrograms/mL | 8 micrograms/mL | MIC in 1:1 combination with rifampicin, K. pneumoniae 062 (K. pneumoniae [10]; K. pneumoniae 062): 1 microgram/mL; MIC in 1:1 combination with rifampicin, K. pneumoniae CCUG 59348 (K. pneumoniae [10]; K. pneumoniae CCUG 59348): ≤0.5 microgram/mL; Mean log10 CFU reduction vs. control ([11]; 0.215 mg/kg/dose free base SC at 2, 6 and 10 h post-infection): 0.69 log10 CFU; Mean log10 CFU reduction vs. control ([11]; 0.86 mg/kg/dose free base SC at 2, 6 and 10 h post-infection): 4.74 log10 CFU; Mean log10 CFU reduction vs. control ([11]; 2.6 mg/kg/dose free base SC at 2, 6 and 10 h post-infection): 5.05 log10 CFU; Mean log10 CFU reduction vs. control ([11]; 8.6 mg/kg/dose free base SC at 2, 6 and 10 h post-infection): 5.79 log10 CFU; Mean log10 CFU reduction vs. control ([11]; 17.2 mg/kg/dose free base SC at 2, 6 and 10 h post-infection): 5.69 log10 CFU; MIC in 1:1 combination with rifampicin, E. coli 059 (E. coli [12]; E. coli 059): ≤0.5 microgram/mL; MIC in 1:1 combination with rifampicin, E. coli 060 (E. coli [12]; E. coli 060): ≤0.5 microgram/mL; MIC in 1:1 combination with rifampicin, E. coli ATCC 25922 (E. coli [12]; E. coli ATCC 25922): ≤0.5 microgram/mL; MIC in 1:1 combination with rifampicin, A. baumannii 053 (A. baumannii [13]): ≤0.5 microgram/mL; MIC, K. pneumoniae ATCC 4352 (K. pneumoniae [8]): 0.06 micrograms/mL; MIC, K. pneumoniae ATCC BAA-2146 (K. pneumoniae [8]): 0.125 micrograms/mL; MIC, P. aeruginosa ATCC 27853 (P. aeruginosa [9]): 0.5 micrograms/mL; MIC, P. aeruginosa CCUG 59347 (P. aeruginosa [9]): 1 micrograms/mL; MIC in 1:1 combination with rifampicin, P. aeruginosa 063 (P. aeruginosa [14]; P. aeruginosa 063): 32 microgram/mL; MIC in 1:1 combination with rifampicin, P. aeruginosa 068 (P. aeruginosa [14]; P. aeruginosa 068): 1 microgram/mL |
| CC(C)C[C@@H]1NC(=O)[C@@H](Cc2ccccc2)NC(=O)[C@H](CCN)NC(=O)[C@@H](NC(=O)[C@H](CCN)NC(=O)[C@@H](NC(=O)[C@@H]2CNCCN2CC(C)C)[C@H](C)O)CCNC(=O)[C@H]([C@@H](C)O)NC(=O)[C@H](CCN)NC(=O)[C@H](CCN)NC1=O [Example D36, (S)-1-(2-methylpropyl)-piperazine-2-carbonyl polymyxin B nonapeptide] (X2-[aThr][Dab][Dab][Dab][dF]L[Dab][Dab]T; lactam 3-C) |  |  |  |  |  |  |  |  |  |  |  |  |  |  |  |  |  |  |  |  | HK-2 IC50 rel to PMB (HK-2 cell line): 4.5; Mean log10 CFU reduction vs. control ([5]; ATCC 27853, in vivo, sc, 17.2 mg/kg, 10 h): 5.30 log10 CFU; MIC (K. pneumoniae [8]): 0.25 µg/mL (≈ 0.221 µM) |
